Laboratory results as given in patent US10435399B2, “HDAC6 inhibitory heterocyclic compound” (TAKEDA PHARMACEUTICAL COMPANY LIMITED, priority 2017, dated 2019).

Target: T1, HDAC6 enzyme (Homo sapiens, UniProt Q9UBN7)
T1 construct: transducing full length HDAC6 gene into Sf-9 insect cells; GST; purchased SignalChem; host or cells: Sf-9 insect cells
T1 sequence (Q9UBN7 1-1215): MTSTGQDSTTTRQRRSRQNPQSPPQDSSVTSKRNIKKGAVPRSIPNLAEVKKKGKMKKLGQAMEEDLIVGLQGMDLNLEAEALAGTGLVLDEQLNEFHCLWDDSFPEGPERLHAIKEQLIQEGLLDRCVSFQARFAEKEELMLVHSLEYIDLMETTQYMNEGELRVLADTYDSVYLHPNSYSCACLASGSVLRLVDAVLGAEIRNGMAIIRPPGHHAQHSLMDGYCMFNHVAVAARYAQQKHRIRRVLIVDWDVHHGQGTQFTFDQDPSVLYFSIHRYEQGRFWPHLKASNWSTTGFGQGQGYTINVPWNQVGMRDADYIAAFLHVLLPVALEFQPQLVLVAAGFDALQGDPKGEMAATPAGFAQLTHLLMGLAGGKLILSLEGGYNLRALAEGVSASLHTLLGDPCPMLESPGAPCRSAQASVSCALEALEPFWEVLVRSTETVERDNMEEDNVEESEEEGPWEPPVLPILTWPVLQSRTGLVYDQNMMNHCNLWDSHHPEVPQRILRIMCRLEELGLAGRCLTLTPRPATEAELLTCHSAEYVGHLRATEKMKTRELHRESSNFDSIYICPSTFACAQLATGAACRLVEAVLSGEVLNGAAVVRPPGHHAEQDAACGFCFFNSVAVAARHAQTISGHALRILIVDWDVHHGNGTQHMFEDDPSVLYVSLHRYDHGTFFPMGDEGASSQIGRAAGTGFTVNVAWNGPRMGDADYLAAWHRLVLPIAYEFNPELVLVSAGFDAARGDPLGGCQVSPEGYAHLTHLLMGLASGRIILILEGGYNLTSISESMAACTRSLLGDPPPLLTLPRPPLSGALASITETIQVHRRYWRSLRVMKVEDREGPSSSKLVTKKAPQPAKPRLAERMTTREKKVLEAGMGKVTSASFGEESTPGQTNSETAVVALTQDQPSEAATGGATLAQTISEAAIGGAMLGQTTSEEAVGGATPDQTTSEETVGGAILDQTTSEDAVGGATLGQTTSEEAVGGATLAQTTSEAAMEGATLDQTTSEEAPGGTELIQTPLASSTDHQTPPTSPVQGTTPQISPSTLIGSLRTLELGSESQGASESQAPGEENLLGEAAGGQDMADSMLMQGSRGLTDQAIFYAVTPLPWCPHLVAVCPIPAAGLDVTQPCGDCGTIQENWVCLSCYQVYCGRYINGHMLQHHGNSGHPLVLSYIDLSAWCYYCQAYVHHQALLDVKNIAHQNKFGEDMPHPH
Test: HDAC6 enzyme inhibitory activity (HDAC-Glo I/II Assay kit)
Type: biochemical
Settings: 10 μM; wells without enzyme = 100% inhibition; read-out: HDAC6 inhibitory rate (%) (10 μM)
How it was run: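 Full-length human HDAC6 (GST-purified, Sf-9 expressed) preincubated with compound 60 min at room temperature in Tris-HCl pH 7.5 buffer with MgCl2, KCl, NaCl, glutathione, Tween-20. HDAC-Glo I/II substrate-developer then added, 20 min room temperature, luminescence read. Inhibition relative to no-enzyme wells as 100%.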

Structure (SMILES)	inhibition at 10 µM [%]
O=C1c2cc(-c3nnc(C(F)F)o3)cnc2CN1Cc1cncc(C(F)(F)F)c1 [Example 425, 3-(5-(difluoro-methyl)-1,3,4-oxadiazol-2-yl)-6-((5-(trifluoro-methyl)pyridin-3-yl)methyl)-6,7-dihydro-5H-pyrrolo [3,4-b] pyridin-5-one]	99
Cn1nc(C(F)(F)F)cc1-c1c(Cl)cccc1N1Cc2ccc(-c3nnc(C(F)F)o3)cc2C1=O [Example 426, 2-(3-chloro-2-(1-methyl-3-(trifluoro-methyl)-1H-pyrazol-5-yl)phenyl)-6-(5-(difluoro-methyl)-1,3,4-oxadiazol-2-yl) isoindolin-1-one]	99
O=C1c2cc(-c3nnc(C(F)F)o3)cc(F)c2CN1C[C@H]1CCCN1S(=O)(=O)c1cccc(F)c1 [Example 427, 6-(5-(difluoro-methyl)-1,3,4-oxadiazol-2-yl)-4-fluoro-2-(((2R)-1-((3-fluorophenyl)sulfonyl)pyrrolidin-2-yl)methyl) isoindolin-1-one]	100
O=C1c2cc(-c3nnc(C(F)F)o3)cnc2CN1Cc1cccc(Br)c1 [Example 428, 6-(3-bromo-benzyl)-3-(5-(difluoro-methyl)-1,3,4-oxadiazol-2-yl)-6,7-dihydro-5H-pyrrolo [3,4-b] pyridin-5-one]	99
O=C1c2cc(-c3nnc(C(F)F)o3)cc(F)c2CN1C[C@H]1CC(F)(F)CN1C(=O)c1ccccc1 [Example 429, 2-(((2R)-1-benzoyl-4,4-difluoro-pyrrolidin-2-yl)methyl)-6-(5-(difluoro-methyl)-1,3,4-oxadiazol-2-yl)-4-fluoroiso-indolin-1-one]	97
O=C1c2cc(-c3nnc(C(F)F)o3)cc(F)c2CN1C[C@H]1CC(F)(F)CN1S(=O)(=O)c1ccccc1 [Example 430, 6-(5-(difluoro-methyl)-1,3,4-oxadiazol-2-yl)-2-(((2R)-4,4-difluoro-1-(phenylsulfonyl)pyrrolidin-2-yl)methyl)-4-fluoroiso-indolin-1-one]	101
Cn1nc(C(F)(F)F)cc1-c1c(F)cccc1N1Cc2ccc(-c3nnc(C(F)F)o3)cc2C1=O [Example 431, 6-(5-(difluoro-methyl)-1,3,4-oxadiazol-2-yl)-2-(3-fluoro-2-(1-methyl-3-(trifluoro-methyl)-1H-pyrazol-5-yl)phenyl)iso-indolin-1-one]	100
O=C1c2cc(-c3nnc(C(F)F)o3)cnc2CN1Cc1cccc(OC(F)(F)F)c1 [Example 432, 3-(5-(difluoro-methyl)-1,3,4-oxadiazol-2-yl)-6-(3-(trifluoro-methoxy)benzyl)-6,7-dihydro-5H-pyrrolo[3,4-b] pyridin-5-one]	94
O=C1c2cc(-c3nnc(C(F)F)o3)ccc2CN1C1(Cc2ccccc2)CCOCC1 [Example 433, 2-(4-benzyl-tetrahydro-2H-pyran-4-yl)-6-(5-(difluoro-methyl)-1,3,4-oxadiazol-2-yl) isoindolin-1-one]	101
Cn1cc(-c2cn(C)nc2N2Cc3ccc(-c4nnc(C(F)F)o4)cc3C2=O)cn1 [Example 434, 6-(5-(difluoro-methyl)-1,3,4-oxadiazol-2-yl)-2-(1,1′-dimethyl-1H,1′H-4,4′-bipyrazol-3-yl) isoindolin-1-one]	98
O=C1c2cc(-c3nnc(C(F)F)o3)ccc2CN1c1ccnn1-c1ccccc1 [Example 435, 6-(5-(difluoro-methyl)-1,3,4-oxadiazol-2-yl)-2-(1-phenyl-1H-pyrazol-5-yl)isoindolin-1-one]	99
Cn1cc(-c2c(F)cccc2N2Cc3ccc(-c4nnc(C(F)F)o4)cc3C2=O)cn1 [Example 436, 6-(5-(difluoro-methyl)-1,3,4-oxadiazol-2-yl)-2-(3-fluoro-2-(1-methyl-1H-pyrazol-4-yl)phenyl)iso-indolin-1-one]	98
O=C1c2cc(-c3nnc(C(F)F)o3)cnc2CN1Cc1ccccc1OC(F)(F)F [Example 437, 3-(5-(difluoro-methyl)-1,3,4-oxadiazol-2-yl)-6-(2-(trifluoro-methoxy)benzyl)-6,7-dihydro-5H-pyrrolo [3,4-b]pyridin-5-one]	101
Cn1cccc1CN1Cc2ncc(-c3nnc(C(F)F)o3)cc2C1=O [Example 438, 3-(5-(difluoro-methyl)-1,3,4-oxadiazol-2-yl)-6-((1-methyl-1H-pyrrol-2-yl)methyl)-6,7-dihydro-5H-pyrrolo [3,4-b]pyridin-5-one]	97
O=C1CCCN1c1cc(F)ccc1N1Cc2ccc(-c3nnc(C(F)F)o3)cc2C1=O [Example 439, 6-(5-(difluoro-methyl)-1,3,4-oxadiazol-2-yl)-2-(4-fluoro-2-(2-oxo-pyrrolidin-1-yl)phenyl) isoindolin-1-one]	99

Other lines, results leading:

inhibition at 10 µM [%]	Structure (SMILES)
97	O=C1c2cc(-c3nnc(C(F)F)o3)cnc2CN1Cc1nccs1 [Example 440, 3-(5-(difluoro-methyl)-1,3,4-oxadiazol-2-yl)-6-(1,3-thiazol-2-ylmethyl)-6,7-dihydro-5H-pyrrolo [3,4-b]pyridin-5-one]
99	O=C1c2cc(-c3nnc(C(F)F)o3)cnc2CN1Cc1ccccc1Br [Example 441, 6-(2-bromo-benzyl)-3-(5-(difluoro-methyl)-1,3,4-oxadiazol-2-yl)-6,7-dihydro-5H-pyrrolo [3,4-b]pyridin-5-one]
94	Cn1ccc(N2Cc3ccc(-c4nnc(C(F)F)o4)cc3C2=O)n1 [Example 442, 6-(5-(difluoro-methyl)-1,3,4-oxadiazol-2-yl)-2-(1-methyl-1H-pyrazol-3-yl)isoindolin-1-one]
100	N#Cc1ccc(N2Cc3ccc(-c4nnc(C(F)F)o4)cc3C2=O)c(-c2ccccc2)c1 [Example 443, 6-(6-(5-(difluoro-methyl)-1,3,4-oxadiazol-2-yl)-1-oxo-1,3-dihydro-2H-isoindol-2-yl) biphenyl-3-carbonitrile]
100	N#Cc1ccc(N2Cc3ccc(-c4nnc(C(F)F)o4)cc3C2=O)c(-c2cnn(C(F)F)c2)c1 [Example 444, 4-(6-(5-(difluoro-methyl)-1,3,4-oxadiazol-2-yl)-1-oxo-1,3-dihydro-2H-isoindol-2-yl)-3-(1-(difluoro-methyl)-1H-pyrazol-4-yl) benzonitrile]
100	N#Cc1ccc(N2Cc3ccc(-c4nnc(C(F)F)o4)cc3C2=O)c(-c2cccc(F)c2)c1 [Example 445, 6-(6-(5-(difluoro-methyl)-1,3,4-oxadiazol-2-yl)-1-oxo-1,3-dihydro-2H-isoindol-2-yl)-3′-fluoro-biphenyl-3-carbonitrile]
100	Cn1cc(C2CCOCC2)c(N2Cc3ccc(-c4nnc(C(F)F)o4)cc3C2=O)n1 [Example 446, 6-(5-(difluoro-methyl)-1,3,4-oxadiazol-2-yl)-2-(1-methyl-4-(tetrahydro-2H-pyran-4-yl)-1H-pyrazol-3-yl) isoindolin-1-one]
100	COc1cccc(-c2cn(C)nc2N2Cc3ccc(-c4nnc(C(F)F)o4)cc3C2=O)c1 [Example 447, 6-(5-(difluoro-methyl)-1,3,4-oxadiazol-2-yl)-2-(4-(3-methoxy-phenyl)-1-methyl-1H-pyrazol-3-yl) isoindolin-1-one]
100	Cn1cc(C2=CCOCC2)c(N2Cc3ccc(-c4nnc(C(F)F)o4)cc3C2=O)n1 [Example 448, 6-(5-(difluoro-methyl)-1,3,4-oxadiazol-2-yl)-2-(4-(3,6-dihydro-2H-pyran-4-yl)-1-methyl-1H-pyrazol-3-yl) isoindolin-1-one]
100	CC(=O)N[C@@H]1CCCC[C@H]1N1Cc2ncc(-c3nnc(C(F)F)o3)cc2C1=O [Example 449, N-((1R,2R)-2-(3-(5-(difluoro-methyl)-1,3,4-oxadiazol-2-yl)-5-oxo-5,7-dihydro-6H-pyrrolo[3,4-b]pyridin-6-yl)cyclohexyl) acetamide]
